# In patent US20140121732A1, “METHODS AND COMPOSITIONS FOR ADMINISTERING A SPECIFIC WAVELENGTH PHOTOTHERAPY” (Applied Biology, Inc., priority 2011, published 2014):
# Experiment: UV absorbance spectrum and derived transmittance profile of photocream applied at 20 μm
# Assay type: physicochemical
# Excerpt: In one embodiment of the present invention, a band-pass photocream is composed such that it is optimized to have maximum transmittance at a therapeutic wavelength of 311 nm for the treatment of vitiligo, psoriasis, atopic dermatitis, and other skin conditions. Said photocream would contain two UV absorbing active ingredients having UV absorbance spectra that when combined in a determined ratio would have a spectral minimum (valley) at 311 nm. For example, a band-pass photocream could be formulated with silymarin (CAS#22888-70-6) and diethylamino hydroxybenzoyl hexyl benzoate (CAS#302776-68-7) in a weight to weight ratio of 2:3 (or less preferably within the range 1:2 to 5:6, or within the range 5:9 to 7:9) to produce an absorbance spectrum with a spectral valley at 311 nm. Said photocream may contain 0.75% (w/w) silymarin (CAS#22888-70-6) and 1.125% (w/w) diethylamino hydroxybenzoyl hexyl benzoate (CAS#302776-68-7). An illustrative absorbance spectrum for such a composition is shown in FIG. 3 when applied at a thickness of 20 μm. […] Alternatively, a band-pass photocream could be formulated with alpha-glucosyl hesperidin (CAS#161713-86-6) and diethylamino hydroxybenzoyl hexyl benzoate (CAS#302776-68-7) in the weight to weight ratio of 4:1 (or less preferably within the range 3:1 to 5:1, or within the range 7:2 to 9:2) to produce an absorbance spectrum with a spectral valley at 311 nm.
# In yet another embodiment, a combination of UV absorbing molecules may be formulated to selectively pass UVB light in the range 306-310 nm for the benefit of maximum vitamin D production while still providing limited protecting from erythema. Said photocream may contain two UV absorbing active ingredients having UV absorption spectra that when combined in a determined ratio would have a spectral minimum (valley) at 308 nm. […] Said photocream could contain 1% (w/w) silymarin (CAS#22888-70-6) and 2.5% (w/w) diethylamino hydroxybenzoyl hexyl benzoate (CAS#302776-68-7) and would produce an absorbance spectra shown in FIG. 7 when applied at a thickness of 20 μm. […]
row,Compound,UV absorbance (in words)
1,"COc1ccc(C(=O)CC(=O)c2ccc(C(C)(C)C)cc2)cc1 [Avobenzone, avobenzone]",significant absorbance in the UVA
2,"COc1ccc([C@@H]2CC(=O)c3c(O)cc(O[C@@H]4O[C@H](CO[C@@H]5O[C@@H](C)[C@H](O)[C@@H](O)[C@H]5O)[C@@H](O)[C@H](O)[C@H]4O)cc3O2)cc1O [Hesperidin, hesperidin]",significant absorbance in the lower UVB range below roughly 310 nm
3,"COC(=O)C=Cc1ccccc1 [Methyl cinnamate, methyl cinnamate]",significant absorbance in the lower UVB range below roughly 310 nm
